Data set [1] in a line: Induction of mitophagy in human HeLa MKYP cells treated with FCCP/oligomycin for 6 hrs and measured by FACS analysis. The format is functional, cell-based.
The subject of the next data set is HeLa. Description: Cytotoxicity against human HeLa MKYP cells assessed as percentage of DAPI-positive cells at 50 uM and measured by DAPI staining method. The format is toxicity, cell-based.

In data set [1], `c1ccc2c(c1)OCC[C@H]2Nc1ncnc2[nH]cnc12` showed an EC50 of more than 50 µM. In addition, the Activity with HeLa amounted to 16%.

On to `OC[C@H](Nc1ncnc2[nH]cnc12)c1ccccc1`, for which the EC50 in data set [1] is 3.48 µM. Besides, the Activity with HeLa was 14.5%.

Turning to `FC(F)(F)c1cc2c(NCc3cnccn3)ncnc2[nH]1`, in the data set on HeLa, the Activity was 0.9%.

Turning to `CC(CNc1ncnc2[nH]cnc12)c1ccccc1` (stereo not drawn), in data set [1], the EC50 came out at 3.6 µM. The Activity with HeLa was 28.9%.

Consider `FC(F)(F)c1cc2c(NCc3ccncn3)ncnc2[nH]1`, for which, in the data set with HeLa, the Activity was found to be 1.5%.

Regarding `OC[C@@H](Nc1ncnc2[nH]c(C(F)(F)F)cc12)c1ccccc1`, the EC50 in data set [1] came to 4.4 µM. Also, in the data set with HeLa, the Activity came out at 30.3%.

In turn, `c1ccc2c(c1)OCC[C@@H]2Nc1ncnc2[nH]cnc12` came in with an EC50 in data set [1] of 1.69 µM. Further, the Activity in the data set with HeLa is reported as 17%.

In turn, `C[C@@H](Nc1ncnc2[nH]c(C(F)(F)F)cc12)c1ccccc1` yielded a half-maximal effective concentration (EC50) in data set [1] of 3.1 µM. In addition, the Activity in the data set with HeLa is listed as 63.7%.

In turn, `Clc1cccc(CNc2ncnc3nc[nH]c23)c1` gave an EC50 in data set [1] of 16 µM. Further, the Activity in the data set on HeLa is listed as 12.5%.

As to `Fc1cccc(CNc2ncnc3[nH]c(C(F)(F)F)cc23)c1Cl`, the Activity in the data set on HeLa stood at 4.5%.

For the molecule `CC(Nc1ncnc2[nH]c(C3CC3)nc12)c1ccccc1` (stereo not drawn), the EC50 in data set [1] was determined as 6.3 µM. The Activity with HeLa was 18.3%.

For `FC(F)(F)c1cc2c(NCc3cncnc3)ncnc2[nH]1`, the midpoint of the response in data set [1], the EC50, lay at 11.7 µM. The Activity with HeLa stood at 1.7%.

As to `c1coc(CNc2ncnc3[nH]cnc23)c1` [KINETIN], the Activity in the data set on HeLa is given as 4.9%.

`O=S1(=O)Cc2ccccc2C(Nc2ncnc3[nH]c(C(F)(F)F)cc23)C1` (stereo not drawn): the EC50 in data set [1] was more than 50 µM. The Activity in the data set on HeLa is reported as 13.2%.

For `CCC(Nc1ncnc2[nH]c(C(F)(F)F)cc12)c1cncnc1` (stereo not drawn), in data set [1], the EC50 came out at 18.8 µM. The Activity in the data set on HeLa was 15.9%.

`CN(C)C1CCC(CNc2ncnc3[nH]c(C(F)(F)F)cc23)CC1` (stereo not drawn) yielded an EC50 in data set [1] of more than 50 µM. Moreover, the Activity in the data set on HeLa is listed as 5.2%.

Take `C[C@@H](Nc1nccc2[nH]cnc12)c1ccccc1`: in data set [1], the EC50 is more than 50 µM. Further, the Activity in the data set on HeLa turned out to be 7.6%.

`COc1ccccc1CNc1ncnc2nc[nH]c12` returned an EC50 in data set [1] of 10.8 µM. The Activity in the data set with HeLa was 12.4%.

With `Cc1nc2c(N[C@@H](C)c3ccccc3)ncnc2[nH]1`, the response in data set [1] was half-maximal at 4.6 µM (EC50). Moreover, the Activity with HeLa came to 31.9%.

For `CCCCNc1ncnc2[nH]c(C(F)(F)F)c(C)c12`, the EC50 in data set [1] is more than 50 µM. For the same molecule, in the data set with HeLa, the Activity is 11.9%.

Regarding `c1coc(CNc2ncnc3[nH]c(C4CCC4)nc23)c1`, the EC50 in data set [1] is more than 50 µM. Moreover, the Activity in the data set with HeLa was 3%.

On to `C[C@H](Nc1ncnc2[nH]c(C(F)(F)F)cc12)c1ccccc1`, for which the EC50 in data set [1] was 0.02 µM. Further, the Activity in the data set on HeLa was determined as 90.8%.

In data set [1], `CC(Nc1ncnc2[nH]cnc12)c1ccccc1` (stereo not drawn) yielded an EC50 of 2.69 µM. In the data set with HeLa, the Activity amounted to 18.2%.

In data set [1], `COc1ccccc1CNc1ncnc2[nH]c(C(F)(F)F)cc12` showed an EC50 of 2 µM. Further, the Activity in the data set with HeLa is 24.7%.

In data set [1], `COc1ccc(CNc2ncnc3[nH]c(C(F)(F)F)cc23)c(OC)c1` displayed an EC50 of 2.08 µM. For the same molecule, the Activity with HeLa stood at 42.6%.

Regarding `FC(F)(F)c1cc2c(N[C@H]3CCOc4ccccc43)ncnc2[nH]1`, it took 5.6 µM to reach a half-maximal effect in data set [1] (EC50). For the same molecule, in the data set on HeLa, the Activity came to 37.7%.

Regarding `COc1ncccc1CNc1ncnc2[nH]c(C(F)(F)F)cc12`, the Activity in the data set on HeLa is 7.6%.

On to `CC(C)[C@@H](Nc1ncnc2[nH]c(C(F)(F)F)cc12)c1cncnc1`, for which the EC50 in data set [1] is 6.9 µM. Besides, the Activity in the data set on HeLa worked out at 6.8%.

Consider `Fc1cc(Cl)cc(CNc2ncnc3[nH]c(C(F)(F)F)cc23)c1`, for which the Activity in the data set with HeLa is 4.8%.

Consider `CCCCNc1ncnc2[nH]c(C3CC3)nc12`, for which, in data set [1], the response was half-maximal at 18.8 µM (EC50). Further, the Activity in the data set on HeLa came to 16.2%.

As to `C[C@@H](Nc1ncnc2[nH]cnc12)c1ccccc1`, the response in data set [1] was half-maximal at 47.4 µM (EC50). The Activity in the data set with HeLa worked out at 10.1%.

In turn, `c1ccc2c(c1)CC[C@@H]2Nc1ncnc2[nH]cnc12` displayed an EC50 in data set [1] of 4.38 µM. The Activity with HeLa amounted to 16.2%.

In data set [1], `COc1cc(CNc2ncnc3[nH]c(C4CC4)nc23)ccn1` had an EC50 of more than 50 µM. The Activity in the data set on HeLa turned out to be 7.1%.

For the molecule `OC[C@H](Nc1ncnc2[nH]c(C(F)(F)F)cc12)c1ccccc1`, the EC50 in data set [1] was found to be 14.7 µM. Moreover, the Activity in the data set with HeLa is 30.4%.

In data set [1], `c1ncc(CNc2ncnc3[nH]cnc23)cn1` had an EC50 of 4.4 µM. Moreover, the Activity in the data set on HeLa came to 5.3%.

In data set [1], `CN1CCC(Nc2ncnc3[nH]c(C(F)(F)F)cc23)c2ccccc21` (stereo not drawn) showed an EC50 of 1.81 µM. Further, in the data set with HeLa, the Activity was 28.1%.

Regarding `FC(F)(F)c1cc2c(NC3CCCc4ccccc43)ncnc2[nH]1` (racemic), in data set [1], the EC50 is more than 50 µM. Moreover, the Activity in the data set with HeLa stood at 27.1%.

In the case of `C[C@@H](Nc1ncnc2[nH]c(C(F)(F)F)cc12)c1cncnc1`, the EC50 in data set [1] came to 21.6 µM. Also, in the data set with HeLa, the Activity came out at 22.9%.

Consider `c1ccc(C2(Nc3ncnc4[nH]cnc34)CC2)cc1`, for which the EC50 in data set [1] was more than 50 µM. Further, the Activity in the data set on HeLa came to 13.4%.

For `c1ccc2c(c1)OCC2Nc1ncnc2[nH]cnc12` (stereo not drawn), the EC50 in data set [1] came to 6.1 µM. Moreover, the Activity in the data set on HeLa is 21%.

Take `C[C@H](Nc1ncnc2[nH]cnc12)c1ccccc1`: the response in data set [1] was half-maximal at 2 µM (EC50). For the same molecule, the Activity with HeLa turned out to be 11.7%.

As to `OC[C@@H](Nc1ncnc2[nH]cnc12)c1ccccc1`, in data set [1], the EC50 was more than 50 µM. Also, the Activity in the data set with HeLa is listed as 8.9%.

For the molecule `CCCCNc1ncnc2[nH]c(C3CCC3)nc12`, in data set [1], the EC50 was more than 50 µM. Besides, the Activity in the data set with HeLa worked out at 6.1%.

Regarding `FC(F)(F)c1cc2c(NC3COCc4ccccc43)ncnc2[nH]1` (stereo not drawn), the EC50 in data set [1] was more than 50 µM. The Activity in the data set on HeLa is reported as 42.9%.

In data set [1], `c1ncc(CNc2ncnc3[nH]c(C4CC4)nc23)cn1` gave a 50% effective concentration (EC50) of more than 50 µM. Also, the Activity in the data set on HeLa was 7.1%.

Consider `C[C@H](Nc1ncnc2[nH]c(C3CC3)nc12)c1ccccc1`, for which, in data set [1], the 50% effective concentration (EC50) came to 3.17 µM. Besides, the Activity in the data set on HeLa was 27.6%.

Turning to `C[C@H](Nc1ncnc2[nH]c(C(F)(F)F)cc12)c1cncnc1`, it took 3.1 µM to reach a half-maximal effect in data set [1] (EC50). Besides, the Activity with HeLa is on record as 23.7%.

On to `c1ccc2c(c1)CC[C@H]2Nc1ncnc2[nH]cnc12`, for which, in data set [1], the concentration for a half-maximal effect (EC50) is more than 50 µM. Also, in the data set with HeLa, the Activity is given as 10.3%.

As for `FC(F)(F)c1cc2c(NC3CCOc4ccccc43)ncnc2[nH]1` (stereo not drawn), the EC50 in data set [1] worked out at 3.24 µM. Further, the Activity with HeLa was determined as 22.3%.

Regarding `FC(F)(F)c1cc2c(N[C@H]3COc4ccccc43)ncnc2[nH]1`, the EC50 in data set [1] stood at 1.4 µM. Further, in the data set with HeLa, the Activity turned out to be 22.8%.

In turn, `CCCCNc1ncnc2c1cc(C(F)(F)F)n2C(C)=O` returned an EC50 in data set [1] of more than 50 µM. Besides, the Activity in the data set with HeLa is 36.6%.

For `FC(F)(F)c1cc2c(N[C@@H]3COc4ccccc43)ncnc2[nH]1`, a half-maximal effect in data set [1] (EC50) was put at 14.9 µM. In addition, the Activity with HeLa is on record as 29.2%.

For `FC(F)(F)c1cc2c(NC3CCCc4ncncc43)ncnc2[nH]1` (stereo not drawn), the EC50 in data set [1] was more than 50 µM. The Activity in the data set on HeLa came to 12%.

Turning to `Cc1nc2c(N[C@H](C)c3ccccc3)ncnc2[nH]1`, the EC50 in data set [1] is more than 50 µM. The Activity in the data set with HeLa is recorded as 9.7%.

Take `FC(F)(F)c1cc2c(NCc3cccc(Cl)c3)ncnc2[nH]1`: in the data set with HeLa, the Activity is listed as 20.3%.

For orientation: EC50 means the concentration needed to bring the measured effect to its halfway point.

The record behind these values is ChEMBL document CHEMBL5050850, “Compositions and methods of using the same for treatment of neurodegenerative and mitochondrial disease” (2020).
